Laboratory results as given in ChEMBL document CHEMBL4270617, “Design, synthesis, antimicrobial, antiquorum-sensing and antitumor evaluation of new series of pyrazolopyridine derivatives” (Eur J Med Chem, 2018).

Experiments:
Candida albicans = assay: Antifungal activity against Candida albicans after 48 hrs by two-fold serial dilution method; format: functional
Staphylococcus aureus = assay: Antibacterial activity against Staphylococcus aureus ATCC 29213 after 24 hrs by two-fold serial dilution method; format: functional; settings: ATCC 29213, 24 h
Aspergillus fumigatus = assay: Antifungal activity against Aspergillus fumigatus 293 after 48 hrs by two-fold serial dilution method; format: functional; settings: Aspergillus fumigatus, 293, 48 h
MCF7 = assay: Antitumor activity against human MCF7 cells assessed as inhibition of cell proliferation after 48 hrs by MTT assay; format: functional, cell-based; settings: MCF7, 48 h
HeLa = assay: Antitumor activity against human HeLa cells assessed as inhibition of cell proliferation after 48 hrs by MTT assay; format: functional, cell-based
Escherichia coli = assay: Antibacterial activity against Escherichia coli ATCC 12435 after 24 hrs by two-fold serial dilution method; format: functional; settings: ATCC 12435, 24 h
Pseudomonas aeruginosa = assay: Antibacterial activity against Pseudomonas aeruginosa PAO1 after 24 hrs by two-fold serial dilution method; format: functional; settings: PAO1, 24 h
HepG2 = assay: Antitumor activity against human HepG2 cells assessed as inhibition of cell proliferation after 48 hrs by MTT assay; format: functional, cell-based; settings: HepG2, 48 h
Aspergillus flavus = assay: Antifungal activity against Aspergillus flavus 3375 after 48 hrs by two-fold serial dilution method; format: functional; settings: Aspergillus flavus, 3375, 48 h
[1] = test system: Chromobacterium violaceum; assay: Inhibition of quorum sensing system in Chromobacterium violaceum ATCC 12472 assessed as diameter of violacein pigment inhibition at 5 mg/ml after 48 hrs
Bacillus cereus = assay: Antibacterial activity against Bacillus cereus UW 85 after 24 hrs by two-fold serial dilution method; format: functional; settings: UW 85, 24 h
WI-38 = assay: Cytotoxicity against human W138 cells after 48 hrs by MTT assay; format: cell-based; settings: WI-38, 48 h
Ehrlich [2] = assay: Antitumor activity against mouse EAC cells allografted in Swiss mouse assessed as viable tumor cell count at 0.5 mg/mouse administered for 9 days (reference value: 77.41 10^6/ml); format: functional
[3] = Displacement of methyl green from DNA (unknown origin) incubated in dark for 24 hrs
Ehrlich [4] = assay: Antitumor activity against mouse EAC cells allografted in Swiss mouse assessed as tumor volume at 0.5 mg/mouse administered for 9 days (reference value: 10.15 mL); format: functional
Mus musculus [5] = assay: Toxicity in Swiss albino mouse implanted with mouse EAC cells assessed as RBC count at 0.5 mg/mouse administered for 9 days (reference value: 3.59 10^6/mm3); format: organism-based; settings: in vivo, 216 h
Mus musculus [6] = assay: Toxicity in Swiss albino mouse implanted with mouse EAC cells assessed as hemoglobin level at 0.5 mg/mouse administered for 9 days (reference value: 7.05 g/dl); format: organism-based; settings: in vivo, 216 h
Ehrlich [7] = assay: Antitumor activity against mouse EAC cells allografted in Swiss mouse assessed as mean survival time at 0.5 mg/mouse administered for 9 days (reference value: 18 day); format: functional
Mus musculus [8] = assay: Toxicity in Swiss albino mouse implanted with mouse EAC cells assessed as WBC count at 0.5 mg/mouse administered for 9 days (reference value: 20.53 10^3/mm3); format: organism-based; settings: in vivo, 216 h
Ehrlich [9] = assay: Antitumor activity against mouse EAC cells allografted in Swiss mouse assessed as increase in life span at 0.5 mg/mouse administered for 9 days relative to control; format: functional
WISH = assay: Cytotoxicity against human WISH cells after 48 hrs by MTT assay; format: cell-based

Row | SMILES | MIC (Candida albicans) | MIC (Staphylococcus aureus) | MIC (Aspergillus fumigatus) | IC50 (MCF7) | IC50 (HeLa; read-out: IC50) | MIC (Escherichia coli) | MIC (Pseudomonas aeruginosa) | IC50 (HepG2) | MIC (Aspergillus flavus) | diameter of the inhibition zone (DIZ) [1] | MIC (Bacillus cereus) | IC50 [3] | further results
1 | CCOC(=O)C1=C(N/N=C(/Cl)C#N)Nc2[nH]nc(C)c2C1c1ccc(N(C)C)cc1 (configuration not stated) | 4670 µM | > 200 µg/mL | 4670 µM | 23.2 µM | 26.2 µM | 2340 µM | 1170 µM | 23.6 µM | 2340 µM | < 2 mm | 2340 µM |  | 
2 | CCOC(=O)C1=C(NN=C(C#N)C#N)Nc2[nH]nc(C)c2C1c1ccc(N(C)C)cc1 (configuration not stated) | 2390 µM | 4780 µM | 2390 µM | 12.1 µM | 15.2 µM | 2390 µM | 1190 µM | 13.7 µM | 2390 µM | < 2 mm | 2390 µM | 44 µM | IC50 (WI-38): 42.7 µM; Activity (Ehrlich [2]): 30.93 ×10⁶ /ml; Activity (Ehrlich [4]): 2.25 mL; Activity (Mus musculus [5]): 5.14 ×10⁶ /mm3; Activity (Mus musculus [6]): 12.65 g/dL; MSD (Ehrlich [7]): 39 days; Activity (Mus musculus [8]): 10.69 ×10³ /mm3; Activity (Ehrlich [9]): 116.7%; IC50 (WISH): 45.2 µM
3 | CCOC(=O)C1=C(N/N=C(/C#N)C(=O)OCC)Nc2[nH]nc(C)c2C1c1ccc(N(C)C)cc1 (configuration not stated) | 537 µM | 2150 µM | 2150 µM | 35.6 µM | 39.2 µM | 1070 µM | 1070 µM | 46.4 µM | 2150 µM | < 2 mm | 1070 µM |  | 
4 | CCOC(=O)C(=NNC1=C(C(=O)OCC)C(c2ccc(N(C)C)cc2)c2c(C)n[nH]c2N1)C(=O)OCC (configuration not stated) | 3900 µM | 976 µM | 1950 µM | 89.8 µM | 83.8 µM | 976 µM | 976 µM | 80.8 µM | 1950 µM | < 2 mm | 976 µM |  | 
5 | COc1cccc2c1C(=O)c1c(O)c3c(c(O)c1C2=O)C[C@@](O)(C(=O)CO)C[C@@H]3O[C@H]1C[C@H](N)[C@H](O)[C@H](C)O1 [DOXORUBICIN] |  |  |  |  |  |  |  | 4.3 µM |  |  |  | 31.3 µM | Activity (Ehrlich [2]): 16.36 ×10⁶ /ml; Activity (Ehrlich [4]): 1 mL; Activity (Mus musculus [5]): 5.32 ×10⁶ /mm3; IC50 (HeLa): 5.17 µM; Activity (Mus musculus [6]): 12.75 g/dL; MSD (Ehrlich [7]): 62 days; Activity (Mus musculus [8]): 8.96 ×10³ /mm3; Activity (Ehrlich [9]): 244.4%
6 | COc1ccc(C2C(C#N)=C(NC(=O)c3ccccc3)Nc3[nH]nc(-c4ccccc4)c32)cc1 (configuration not stated) |  |  |  |  |  |  |  |  |  |  |  | 39.4 to 82.8 µM | 
7 | CCOC(=O)C1=C(N/N=C(\C(C)=O)C(=O)c2ccccc2)Nc2[nH]nc(C)c2C1c1ccc(N(C)C)cc1 (configuration not stated) | 1940 µM | 1940 µM | 3890 µM | 47.3 µM | 47.4 µM | 1940 µM | 972 µM | 42.3 µM | 3890 µM | < 2 mm | 1940 µM |  | 
8 | CCOC(=O)C1=C(N/N=C(/C(=O)Br)c2ccc(Br)cc2)Nc2[nH]nc(C)c2C1c1ccc(N(C)C)cc1 (configuration not stated) | 397 µM | 99.1 µM | 793 µM | 61.3 µM | 68.5 µM | 397 µM | 397 µM | 65 µM | 1590 µM | < 2 mm | 99.1 µM | 43.7 µM | 
9 | COc1ccc(C2C(C#N)=C(/N=C/OC(C)=O)Nc3[nH]nc(-c4ccccc4)c32)cc1 (configuration not stated) |  |  |  |  |  |  |  |  |  |  |  | 39.4 to 82.8 µM | 
10 | CC1(C)S[C@@H]2[C@H](NC(=O)[C@H](N)c3ccccc3)C(=O)N2[C@H]1C(=O)O [AMPICILLIN] |  | 716 µM |  |  |  | 28.6 µM |  |  |  |  | 1430 µM |  | 
11 | CCOC(=O)C1=C(N/N=C(/Br)c2ccccc2)Nc2[nH]nc(C)c2C1c1ccc(N(C)C)cc1 (configuration not stated) | 1910 µM | 955 µM | 1910 µM | 78.4 µM | 75.7 µM | 955 µM | 478 µM | 72 µM | 1910 µM | 11 mm | 955 µM |  | 
12 | CCOC(=O)C1=C(N/C=N/c2ccc([N+](=O)[O-])cc2)Nc2[nH]nc(C)c2C1c1ccc(N(C)C)cc1 (configuration not stated) | 2040 µM | 255 µM | 4090 µM | 58.6 µM | 57.8 µM | 128 µM | 128 µM | 50.9 µM | 4090 µM | 7 mm | 1050 µM | 59.6 µM | 
13 | COc1ccc(C2C(C#N)=C(NC(=O)/C=C/C(=O)O)Nc3[nH]nc(-c4ccccc4)c32)cc1 (configuration not stated) |  |  |  |  |  |  |  |  |  |  |  | 39.4 to 82.8 µM | 
14 | CCOC(=O)C1=C(N/C=N/c2ccccn2)Nc2[nH]nc(C)c2C1c1ccc(N(C)C)cc1 (configuration not stated) | 561 µM | 70.1 µM | 281 µM | 37.3 µM | 29.2 µM | 281 µM | 281 µM | 26.2 µM | 281 µM | < 2 mm | 70.1 µM | 28 µM | 
15 | CCOC(=O)C1=C(N/N=C(/C(C)=O)C(=O)OCC)Nc2[nH]nc(C)c2C1c1ccc(N(C)C)cc1 (configuration not stated) | 4140 µM | 2070 µM | 2070 µM | > 100 µM | > 100 µM | 518 µM | 518 µM | > 100 µM | 2070 µM | < 2 mm | 518 µM | 68.2 µM | 
16 | OC(Cn1cncn1)(Cn1cncn1)c1ccc(F)cc1F [FLUCONAZOLE] | 6530 µM |  | > 200 µg/mL |  |  | > 200 µg/mL | > 200 µg/mL |  | > 200 µg/mL |  | > 200 µg/mL |  | 
17 | CCOC(=O)C1=C(N/C=N/c2ccc(C)cc2)Nc2[nH]nc(C)c2C1c1ccc(N(C)C)cc1 (configuration not stated) | > 200 µg/mL | 136 µM | 2180 µM | 50.5 µM | 43.2 µM | 2180 µM | 2180 µM | 44.4 µM | 2180 µM | < 2 mm | 136 µM | 76.4 µM | 
18 | CCOC(=O)C1=C(N/N=C(/Cl)c2ccc([N+](=O)[O-])cc2)Nc2[nH]nc(C)c2C1c1ccc(N(C)C)cc1 (configuration not stated) | 3820 µM | 954 µM | 1910 µM | 52.7 µM | 46.2 µM | 1910 µM | 954 µM | 55.5 µM | 1910 µM | < 2 mm | 1910 µM |  | 
19 | CCOC(=O)C1=C(N/N=C(\C#N)C(N)=O)Nc2[nH]nc(C)c2C1c1ccc(N(C)C)cc1 (configuration not stated) | 4580 µM | 4580 µM | 4580 µM | 50.1 µM | 47.3 µM | 1150 µM | 1150 µM | 48.4 µM | 4580 µM | < 2 mm | 2290 µM |  | 
20 | CCOC(=O)C1=C(N/N=C(/C(=O)Br)c2ccc(Cl)cc2)Nc2[nH]nc(C)c2C1c1ccc(N(C)C)cc1 (configuration not stated) | 3410 µM | 427 µM | 3410 µM | 46.3 µM | 49.3 µM | 1710 µM | 1710 µM | 50.2 µM | 3410 µM | < 2 mm | 427 µM | 80.7 µM | 
21 | Oc1cc(O)c2c(c1)O[C@H](c1ccc(O)c(O)c1)[C@@H](O)C2 |  |  |  |  |  |  |  |  |  | 2 mm |  |  | 
22 | CCOC(=O)C1=C(N/C=N/c2nnc(S(N)(=O)=O)s2)Nc2[nH]nc(C)c2C1c1ccc(N(C)C)cc1 (configuration not stated) | 940 µM | 118 µM | 940 µM | 34.5 µM | 26.3 µM | 940 µM | 940 µM | 38.1 µM | 940 µM | 9 mm | 118 µM | 79.1 µM | 
23 | CCOC(=O)C1=C(N/N=C(\c2ccc([N+](=O)[O-])cc2)N2CCN(c3ccc(F)cc3)CC2)Nc2[nH]nc(C)c2C1c1ccc(N(C)C)cc1 (configuration not stated) | 749 µM | 749 µM | 3000 µM | > 100 µM | 87 µM | 187 µM | 187 µM | 90.2 µM | 3000 µM | < 2 mm | 374 µM | 51.8 µM | 
